This passage reports relative activity and Km results from publication PMC9426524 (mBio, 2022).

In one test the target is Bacillus subtilis NadD (Bacillus subtilis, UniProt P54455). It is filed as biochemical.
Another test relates to CoADR (JCVISYN3A_0887). It is filed as biochemical, Mycoplasma mycoides subsp. capri. Conditions: pH 7.5.
For another test, the target named is T1, human DJ-1 (Homo sapiens, UniProt Q99497).
T1 construct: gene PARK7; recombinant; details in supplement
T1 sequence (Q99497 1-189 limits assumed): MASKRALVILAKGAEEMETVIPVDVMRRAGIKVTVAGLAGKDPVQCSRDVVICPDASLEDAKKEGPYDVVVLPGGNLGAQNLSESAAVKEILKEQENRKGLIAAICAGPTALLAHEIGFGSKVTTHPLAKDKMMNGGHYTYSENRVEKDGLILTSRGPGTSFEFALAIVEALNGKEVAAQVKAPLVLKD
The experiment in a line: deglycase assay. It is filed as biochemical. The following applies: cited from earlier work.

Test [1] concerns JCVISYN3A_0400 (DJ-1 homolog). The class given is biochemical, Mycoplasma mycoides subsp. capri.

Bacillus subtilis NadD, sequence (P54455 whole entry): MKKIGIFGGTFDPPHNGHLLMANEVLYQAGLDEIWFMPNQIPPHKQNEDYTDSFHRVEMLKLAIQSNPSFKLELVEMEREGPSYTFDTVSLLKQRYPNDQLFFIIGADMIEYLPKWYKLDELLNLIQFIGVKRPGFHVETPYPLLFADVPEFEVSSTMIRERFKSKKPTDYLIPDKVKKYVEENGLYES

As for `Nc1ncnc2c1ncn2[C@@H]1O[C@H](COP(=O)(O)OP(=O)(O)OP(=O)(O)O)[C@@H](O)[C@H]1O` [ATP], the relative activity entry on Bacillus subtilis NadD is “whereas B. subtilis NadD strongly preferred ATP”.

Regarding `CC(C)(COP(=O)(O)OP(=O)(O)OC[C@H]1O[C@@H](n2cnc3c(N)ncnc32)[C@H](O)[C@@H]1OP(=O)(O)O)[C@@H](O)C(=O)NCCC(=O)NCCSSCCNC(=O)CCNC(=O)[C@H](O)C(C)(C)COP(=O)(O)OP(=O)(O)OC[C@H]1O[C@@H](n2cnc3c(N)ncnc32)[C@H](O)[C@@H]1OP(=O)(O)O` [CoAD], the Michaelis constant (Km) in the test on CoADR (JCVISYN3A_0887) came out at 170 µM.

Turning to `CC(=O)C(O)SCCNC(=O)CCNC(=O)[C@H](O)C(C)(C)COP(=O)(O)OP(=O)(O)OC[C@H]1O[C@@H](n2cnc3c(N)ncnc32)[C@H](O)[C@@H]1OP(=O)(O)O` (stereo partly shown) [methylglyoxal-CoA hemithioacetal], the Km on human DJ-1 is 144 ± 64 µM.

Consider `CC(=O)C=O` [methylglyoxal], for which, in test [1], the Km was determined as 1230 ± 300 µM.
